Data taken from patent publication US12528837B2, “Aryl substituted polymyxin derivatives” (priority 2018, dated 2026).
≈ marks a conversion by molar mass, not a printed value. Like-named read-outs stand apart in the source and are kept apart here. Where a SMILES comes first, the peptide text is derived from it. Bridges are numbered along the chain shown (N, C = ends). [ ]: non-standard residue; d: D form. The star is where a group is joined. X3 = CC(C)c1cccc([C@@H](CN)CC(=O)*)c1; X8 = NC[C@@H](CC(=O)*)Cc1cccc(Cl)c1; X5 = NC[C@H](CC(=O)*)c1ccc(Cl)cc1; Dab = NCC[C@H](N)C(=O)O; Abu = CC[C@H](N)C(=O)O; Dap = NC[C@H](N)C(=O)O

Tests used:
HK-2 cells = experiment: In vitro renal cell toxicity assay (HK-2); assay type: cell-based
Outline: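 HK-2 cells seeded 7,500/well, adhered overnight, then exposed to compound for 24 h at 37° C, 5% CO2, with 5% water and 0.5% DMSO. Background-subtracted, vehicle-normalised dose-response fitted with bottom fixed at zero; IC50 reported relative to PMB in the same run, median where repeated.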

[1] = Kidney drug level after subcutaneous dose in mouse; assay type: in vivo; settings: mouse, in vivo
Outline: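 Mice were euthanised four hours after subcutaneous dosing. Both kidneys were trimmed, weighed, snap-frozen, then homogenised with zirconium oxide beads. After centrifugation (13,000 rpm, 6 °C, 10 min), supernatants were analysed by LC-MS-MS.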

E. coli CA58 = assay type: cell-based
Outline: (§1)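 First, isolated colonies from an 18-24 hour Mueller-Hinton plate were suspended and standardised to 0.5 McFarland. Testing was then carried out in duplicate. For repeatedly tested compounds the reported MIC, expressed in μg/mL, is the median result.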

K. pneumoniae CA64 = assay type: cell-based
Outline: as §1

P. aeruginosa CCUG 59347 = assay type: cell-based
Outline: as §1

[2] = tested on: A. baumannii ATCC BAA-747; assay type: cell-based
Method: (§2) The inoculum was prepared by making a direct suspension of isolated colonies (selected from an 18-24 hour Mueller-Hinton agar plate) adjusted to the 0.5 McFarland standard. […] The assays were performed in duplicate. […] The MIC values are quoted in μg/mL.

A. baumannii NCTC 13424 = assay type: cell-based
Method: as §2

E. coli ATCC 25922 = assay type: cell-based; settings: ATCC 25922
Method: as §2

K. pneumoniae ATCC 13822 = assay type: cell-based; settings: ATCC 13822
Method: as §2

P. aeruginosa ATCC 27853 = assay type: cell-based; settings: ATCC 27853
Method: as §2

[3] = Renal toxicity in mice, separate experiment Example 17 vs PMB; assay type: in vivo, mouse; settings: sc 25 mg free base/kg, four doses at 8 hr intervals
Method: After the fourth dose animals were transferred into individual metabolic cages and urine collected for 24 hours for determination of urinary biomarkers. After collecting urine mice were euthanised and the kidneys harvested for histopathology.
In a separate experiment Example 17 was compared with PMB.

[4] = cation-adjusted Mueller-Hinton Broth, 18-20 h, 35° C.

SMILES	HK-2 rel to PMB (HK-2 cells)	tissue level at time at 4 h ([1]; sc, 17.2 mg/kg) [ng/g]	MIC E. coli CA58 (E. coli CA58; CA58) [µg/mL]	MIC K. pneumoniae CA64 (K. pneumoniae CA64; CA64) [µg/mL]	MIC P. aeruginosa CCUG 59347 (P. aeruginosa CCUG 59347; CCUG 59347) [µg/mL]	MIC A. baumannii ATCC BAA-747 ([2]; ATCC BAA-747) [µg/mL]	MIC A. baumannii NCTC 13424 (A. baumannii NCTC 13424; NCTC 13424) [µg/mL]	MIC E. coli ATCC 25922 (E. coli ATCC 25922) [µg/mL]	MIC K. pneumoniae ATCC 13822 (K. pneumoniae ATCC 13822) [µg/mL]	MIC P. aeruginosa ATCC 27853 (P. aeruginosa ATCC 27853) [µg/mL]	also measured
CC(C)C[C@@H]1NC(=O)[C@@H](Cc2ccccc2)NC(=O)[C@H](CCN)NC(=O)[C@@H](NC(=O)[C@H](CN)NC(=O)[C@@H](NC(=O)C[C@@H](CN)c2ccc(Cl)cc2)[C@@H](C)O)CCNC(=O)[C@H]([C@@H](C)O)NC(=O)[C@H](CCN)NC(=O)[C@H](CCN)NC1=O [Example 2, (R)-4-amino-3-(4- chlorophenyl)butanoyl- Thr-Dap-Cyclo[Dab- Dab-DPhe-Leu-Dab- Dab-Thr]] (X5-T[Dap][Dab][Dab][dF]L[Dab][Dab]T; lactam 3-C)	7.2	538000	8 (≈ 6.99 µM)	2 (≈ 1.75 µM)	0.5 (≈ 0.437 µM)	0.25 (≈ 0.218 µM)	0.25 (≈ 0.218 µM)	0.25 (≈ 0.218 µM)	0.25 (≈ 0.218 µM)	0.25 (≈ 0.218 µM)	4 hr kidney level/rel. cytotoxicity [1]: 75
CC(C)C[C@@H]1NC(=O)[C@@H](Cc2ccccc2)NC(=O)[C@H](CCN)NC(=O)[C@@H](NC(=O)[C@H](CN)NC(=O)[C@@H](NC(=O)C[C@H](CN)Cc2cccc(Cl)c2)[C@@H](C)O)CCNC(=O)[C@H]([C@@H](C)O)NC(=O)[C@H](CCN)NC(=O)[C@H](CCN)NC1=O [Example 11, (R)-4-amino-3-(3- chlorobenzyl)butanoyl- Thr-Dap-Cyclo[Dab- Dab-DPhe-Leu-Dab- Dab-Thr]. Isomer 1] (X8-T[Dap][Dab][Dab][dF]L[Dab][Dab]T; lactam 3-C)	5.2	163000	4 (≈ 3.45 µM)	16 (≈ 13.8 µM)	0.5 (≈ 0.431 µM)	0.5 (≈ 0.431 µM)	0.25 (≈ 0.216 µM)	0.5 (≈ 0.431 µM)	0.5 (≈ 0.431 µM)	0.25 (≈ 0.216 µM)	
CC[C@@H]1NC(=O)[C@@H](Cc2ccccc2)NC(=O)[C@H](CCN)NC(=O)[C@@H](NC(=O)[C@H](CN)NC(=O)[C@@H](NC(=O)C[C@H](CN)c2cccc(C(C)C)c2)[C@@H](C)O)CCNC(=O)[C@H]([C@@H](C)O)NC(=O)[C@H](CCN)NC(=O)[C@H](CCN)NC1=O [Example 17] (X3-T[Dap][Dab][Dab][dF][Abu][Dab][Dab]T; lactam 3-C)											HK-2 rel to PMB (HK-2 cells; IC50 relative to PMB in the same experiment, 24 h): 29.0; tissue level at time at 4 h ([1]; mice, 17.2 mg/kg free base sc, 4 h, read-out: 4 hr kidney level): 231000 ng/g; MIC E. coli CA58 (E. coli CA58; [4]): 8 µg/mL (≈ 7.12 µM); MIC K. pneumoniae CA64 (K. pneumoniae CA64; [4]): 16 µg/mL (≈ 14.2 µM); MIC P. aeruginosa CCUG 59347 (P. aeruginosa CCUG 59347; [4]): 0.25 µg/mL (≈ 0.222 µM); MIC A. baumannii ATCC BAA-747 [2, 4]: 0.06 µg/mL (≈ 0.0534 µM); MIC A. baumannii NCTC 13424 (A. baumannii NCTC 13424; [4]): 0.06 µg/mL (≈ 0.0534 µM); Basophilic tubules (histopathology) ([3]; animals per grade): 3 normal/2 minimal; Tubular degeneration/necrosis (histopathology) ([3]; animals per grade): All normal; Albumin, elevation compared with vehicle control ([3]; urine): 2.7×; Cystatin C, elevation compared with vehicle control ([3]; urine): 1.8×; KIM-1, elevation compared with vehicle control ([3]; urine): 4.7×
CC(C)C[C@H]1NC(=O)[C@H](CCN)NC(=O)[C@@H](NC(=O)[C@H](CN)NC(=O)[C@@H](NC(=O)C[C@H](CN)c2cccc(C(C)C)c2)[C@@H](C)O)CCNC(=O)[C@H]([C@@H](C)O)NC(=O)[C@H](CCN)NC(=O)[C@H](CCN)NC(=O)[C@H]([C@@H](C)O)NC1=O [Example 19, (S)-4-amino-3-(3- isopropylphenyl) butanoyl-Thr-Dap- Cyclo[Dab-Dab-DLeu- Thr-Dab-Dab-Thr]] (X3-T[Dap][Dab][Dab][dL]T[Dab][Dab]T; lactam 3-C)	101.4	386000	32 (≈ 28.9 µM)	64 (≈ 57.8 µM)	1 (≈ 0.904 µM)	0.25 (≈ 0.226 µM)	0.25 (≈ 0.226 µM)	0.25 (≈ 0.226 µM)	0.25 (≈ 0.226 µM)	0.25 (≈ 0.226 µM)	
